Experimental data from BindingDB's records for doi:10.1016/j.bmcl.2005.12.051 (Procter & Gamble Pharmaceuticals, 2006).

Target: T1, Tyrosine-protein phosphatase non-receptor type 1 [1-298] (Homo sapiens, UniProt P18031)
T1 construct: 1-298
T1 sequence (P18031 whole entry): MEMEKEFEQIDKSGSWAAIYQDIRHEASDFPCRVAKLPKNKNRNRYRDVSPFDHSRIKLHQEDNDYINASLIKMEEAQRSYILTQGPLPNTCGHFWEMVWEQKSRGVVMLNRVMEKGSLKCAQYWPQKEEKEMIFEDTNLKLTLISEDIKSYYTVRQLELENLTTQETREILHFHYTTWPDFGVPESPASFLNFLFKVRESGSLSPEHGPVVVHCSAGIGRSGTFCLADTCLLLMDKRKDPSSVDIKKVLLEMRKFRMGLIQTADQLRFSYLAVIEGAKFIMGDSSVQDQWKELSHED
Assay: Phosphatase Inhibition Assay
Conditions: for IC50: pH 7, 22 °C
Experimental: The activity of PTP1B enzyme was assayed with DiFMUP as substrate. Hydrolysis of substrate was monitored on a Victor V plate reader (Wallac). Kinetic measurements were measured using 3-5 concentrations of inhibitor around the IC50 over a range of substrate concentrations (3-500 uM). Data were used to determine Km/Ki/competitive inhibition using GraphPad Prism software.

Row | Ki | SMILES | IC50
1 | > 500 µM | Cn1nc(-c2ccccc2)cc1NS(=O)(=O)O [N-(1-methyl-3-phenyl-1H-pyrazol-5-yl)sulfamic acid] | 
2 |  | CNC(=O)[C@@H]1Cc2ccc(NS(=O)(=O)O)cc2CN1C(=O)C=Cc1coc2ccccc12 [ammonium N-[(3S)-2-[(2E)-3-(1-benzofuran-3-yl)prop-2-enoyl]-3-(methylcarbamoyl)-1,2,3,4-tetrahydroisoquinolin-7-yl]sulfamate] | 24.9 µM
3 |  | CNC(=O)[C@@H]1Cc2ccc(NS(=O)(=O)O)cc2CN1C(=O)N[C@@H](Cc1ccccc1)C(=O)OC(C)(C)C [ammonium N-[(3S)-2-{[(2S)-1-(tert-butoxy)-1-oxo-3-phenylpropan-2-yl]carbamoyl}-3-(methylcarbamoyl)-1,2,3,4-tetrahydroisoquinolin-7-yl]sulfamate] | > 500 µM
